According to ChEMBL document CHEMBL6096698, “Discovery of a Selective and Orally Bioavailable RET Degrader with Effectiveness in Various Mutations” (J Med Chem, 2025):
pIC50: −log10 of the molar value. Activity calls are given as the source filed them. No cut-off for these calls is given here.

Experiments:
[1] = system: BaF3; assay: Antiproliferative activity against mouse BaF3 cells stably expressing KIF5B-RET G810C mutant incubated for 72 hrs by CCK8 assay; assay type: functional, cell-based; conditions: BaF3, 72 h
[2] = biological target: Proto-oncogene tyrosine-protein kinase receptor Ret (Homo sapiens, UniProt P07949); assay: Inhibition of RET (unknown origin) preincubated for 10 mins followed by substrate/ATP addition measured after 30 mins by HTRF assay
[3] = system: BaF3; assay: Antiproliferative activity against mouse BaF3 cells stably expressing KIF5B-RET G810R mutant incubated for 72 hrs by CCK8 assay; assay type: functional, cell-based; conditions: BaF3, 72 h
[4] = system: BaF3; assay: PROTAC activity at CRBN/KIF5B-RET (unknown origin) expressed in mouse BaF3 cells assessed as induction of RET degradation at 10 nM incubated for 24 hrs by immunoblot analysis relative to control; assay type: cell-based
[5] = system: BaF3; assay: Antiproliferative activity against mouse BaF3 cells stably expressing KIF5B-RET G810S mutant incubated for 72 hrs by CCK8 assay; assay type: functional, cell-based; conditions: BaF3, 72 h
[6] = system: BaF3; assay: Antiproliferative activity against mouse BaF3 cells stably expressing KIF5B-RET V804M mutant incubated for 72 hrs by CCK8 assay; assay type: functional, cell-based; conditions: BaF3, 72 h
[7] = system: BaF3; assay: Antiproliferative activity against mouse BaF3 cells stably expressing KIF5B-RET incubated for 72 hrs by CCK8 assay; assay type: functional, cell-based; conditions: BaF3, 72 h
[8] = Induction of apoptosis in mouse BaF3 cells stably expressing KIF5B-RET G810C mutant assessed as early apoptotic cells at 100 nM incubated for 48 hrs by Annexin V-FITC/PI staining based flow cytometry (reference value: 0.86 %); assay type: functional
[9] = Induction of apoptosis in mouse BaF3 cells stably expressing KIF5B-RET G810C mutant assessed as viable cells at 100 nM incubated for 48 hrs by Annexin V-FITC/PI staining based flow cytometry (reference value: 92.21 %); assay type: functional; conditions: read-out: Activity
[10] = Induction of apoptosis in mouse BaF3 cells stably expressing KIF5B-RET G810C mutant assessed as necrotic cells at 100 nM incubated for 48 hrs by Annexin V-FITC/PI staining based flow cytometry (reference value: 0.94 %); assay type: functional
[11] = system: BaF3; assay: Antiproliferative activity against mouse BaF3 cells stably expressing CCDC6-RET G810R mutant incubated for 72 hrs by CCK8 assay; assay type: functional, cell-based; conditions: BaF3, 72 h
[12] = system: BaF3; assay: Antiproliferative activity against mouse BaF3 cells stably expressing CCDC6-RET incubated for 72 hrs by CCK8 assay; assay type: functional, cell-based; conditions: BaF3, 72 h
[13] = Induction of apoptosis in mouse BaF3 cells stably expressing KIF5B-RET G810C mutant assessed as late apoptotic cells at 100 nM incubated for 48 hrs by Annexin V-FITC/PI staining based flow cytometry (reference value: 5.99 %); assay type: functional
[14] = system: BaF3; assay: Induction of degradation of KIF5B-RET (unknown origin) expressed in mouse BaF3 cells at 10 nM incubated for 24 hrs by immunoblot analysis relative to control; assay type: cell-based; conditions: Homo sapiens
[15] = system: BaF3; assay: Antiproliferative activity against mouse BaF3 cells stably expressing CCDC6-RET G810C mutant incubated for 72 hrs by CCK8 assay; assay type: functional, cell-based; conditions: BaF3, 72 h
[16] = system: BaF3; assay: Antiproliferative activity against mouse BaF3 cells stably expressing CCDC6-RET V804M mutant incubated for 72 hrs by CCK8 assay; assay type: functional, cell-based; conditions: BaF3, 72 h
[17] = system: BaF3; assay: PROTAC activity at CRBN/KIF5B-RET (unknown origin) expressed in mouse BaF3 cells assessed as induction of RET degradation at 10 nM incubated for 24 hrs by immunoblot analysis; assay type: cell-based

Chain of Proto-oncogene tyrosine-protein kinase receptor Ret (P07949 whole entry): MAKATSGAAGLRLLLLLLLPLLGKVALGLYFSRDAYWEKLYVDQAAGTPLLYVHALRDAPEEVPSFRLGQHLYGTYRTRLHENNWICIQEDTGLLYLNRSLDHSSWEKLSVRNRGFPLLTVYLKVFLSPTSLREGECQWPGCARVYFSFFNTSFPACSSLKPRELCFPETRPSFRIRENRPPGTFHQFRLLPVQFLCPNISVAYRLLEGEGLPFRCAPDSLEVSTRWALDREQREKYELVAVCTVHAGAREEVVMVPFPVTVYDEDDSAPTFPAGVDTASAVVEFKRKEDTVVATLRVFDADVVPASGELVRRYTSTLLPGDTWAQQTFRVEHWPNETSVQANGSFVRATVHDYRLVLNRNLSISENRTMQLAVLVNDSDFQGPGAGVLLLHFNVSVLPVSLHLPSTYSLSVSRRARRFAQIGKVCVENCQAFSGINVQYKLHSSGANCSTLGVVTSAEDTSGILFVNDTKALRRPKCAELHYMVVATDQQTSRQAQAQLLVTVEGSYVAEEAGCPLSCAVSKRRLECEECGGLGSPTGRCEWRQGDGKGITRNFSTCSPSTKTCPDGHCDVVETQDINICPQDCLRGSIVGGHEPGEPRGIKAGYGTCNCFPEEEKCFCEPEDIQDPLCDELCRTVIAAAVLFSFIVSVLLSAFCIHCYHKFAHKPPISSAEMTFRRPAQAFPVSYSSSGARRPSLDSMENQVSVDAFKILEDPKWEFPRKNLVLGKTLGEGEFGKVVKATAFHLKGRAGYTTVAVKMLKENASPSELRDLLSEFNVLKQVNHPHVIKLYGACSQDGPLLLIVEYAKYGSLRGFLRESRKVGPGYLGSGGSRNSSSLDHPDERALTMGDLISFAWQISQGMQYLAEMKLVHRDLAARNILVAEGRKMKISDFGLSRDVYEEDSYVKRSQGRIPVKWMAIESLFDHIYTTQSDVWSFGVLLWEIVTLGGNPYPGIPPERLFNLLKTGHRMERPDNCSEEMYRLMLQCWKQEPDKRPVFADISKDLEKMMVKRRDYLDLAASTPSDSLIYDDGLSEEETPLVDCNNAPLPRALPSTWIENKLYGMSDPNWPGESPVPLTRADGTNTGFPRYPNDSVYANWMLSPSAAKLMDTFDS

| SMILES | pIC50 [1] | pIC50 [2] | pIC50 [3] | Activity [4] | pIC50 [5] | pIC50 [6] | pIC50 [7] | Activity [8] | viability at 0.1 µM [9] | Activity [10] | pIC50 [11] | pIC50 [12] | Activity [13] | Activity [14] | pIC50 [15] | pIC50 [16] | Activity [17] |
| --- | --- | --- | --- | --- | --- | --- | --- | --- | --- | --- | --- | --- | --- | --- | --- | --- | --- |
| COc1ccc(CN2C3CC2CN(c2ccc(-c4cc(N5CCC(N6CCN(C(=O)CCCNc7cccc8c7C(=O)N(C7CCC(=O)NC7=O)C8=O)CC6)CC5)cn5ncc(C#N)c45)cn2)C3)cn1 (stereo not given) | 6.83 | 9.56 | 6.29 | 62% | 7.12 | 7.95 | 8.60 | – | – | – | – | – | – | – | – | – | – |
| COc1ccc(CN2C3CC2CN(c2ccc(-c4cc(OCC(C)(C)O)cn5ncc(C#N)c45)cn2)C3)cn1 [SELPERCATINIB] | 6.42 | – | 6.16 | – | 7.02 | 7.78 | 8.11 | 1.04% | 90.7% | 1.63% | 6.44 | 8.38 | 6.67% | 0% | 6.20 | 7.91 | – |
| COc1ccc(CN2C3CC2CN(c2ccc(-c4cc(N5CCNCC5)cn5ncc(C#N)c45)cn2)C3)cn1 | 6.97 | – | 6.11 | – | 7.01 | 7.44 | 8.25 | – | – | – | – | – | – | 0% | – | – | – |
| COc1ccc(CN2C3CC2CN(c2ccc(-c4cc(N5CCN(C6CN(c7ccc8c(c7)C(=O)N(C7CCC(=O)NC7=O)C8=O)C6)CC5)cn5ncc(C#N)c45)cn2)C3)cn1 (stereo not given) | 6.49 | 9.67 | 5.95 | 71% | 7.28 | 8.09 | 8.55 | – | – | – | – | – | – | – | – | – | – |
| COc1ccc(CN2C3CC2CN(c2ccc(-c4cc(N5CCC(N6CCN(CCCC#Cc7cccc8c7CN(C7CCC(=O)N(C)C7=O)C8=O)CC6)CC5)cn5ncc(C#N)c45)cn2)C3)cn1 (stereo not given) | – | – | – | – | – | – | – | – | – | – | – | – | – | – | – | – | inactive |
| COc1ccc(CN2C3CC2CN(c2ccc(-c4cc(N5CCC(N6CCN(C(=O)CCCCCNc7ccc8c(c7)C(=O)N(C7CCC(=O)NC7=O)C8=O)CC6)CC5)cn5ncc(C#N)c45)cn2)C3)cn1 (stereo not given) | 6.74 | 9.41 | 6.26 | 61% | 7.11 | 7.88 | 8.54 | – | – | – | – | – | – | – | – | – | – |
| COc1ccc(CN2C3CC2CN(c2ccc(-c4cc(N5CCC(N6CCNCC6)CC5)cn5ncc(C#N)c45)cn2)C3)cn1 | 6.81 | – | 6.14 | – | 6.95 | 7.37 | 8.37 | – | – | – | – | – | – | 0% | – | – | – |
| COc1ccc(CN2C3CC2CN(c2ccc(-c4cc(N5CCN(C(=O)CCCCCCCNc6cccc7c6C(=O)N(C6CCC(=O)NC6=O)C7=O)CC5)cn5ncc(C#N)c45)cn2)C3)cn1 (stereo not given) | 6.90 | 9.69 | 6.34 | 73% | 7.21 | 7.86 | 8.80 | – | – | – | – | – | – | – | – | – | – |
